Experimental data published in US7431936B2, “Proteins involved in cytoadhesion of plasmodium falciparum ring-stage-infected erythrocytes, antibodies which bind to the proteins, and methods for detecting infection, stage of infection and vaccines for protecting against infection” (Institut Pasteur, priority 2000, dated 2008).

What was measured:
[1] = test system: ring-stage IE^CSA cytoadhesion to SBEC 1D; experiment: Cytoadhesion inhibition assay of IE^CSA on SBEC 1D; format: cell-based, P. falciparum; conditions: for inhibitory effect on ring-stage IE binding to SBEC 1D: ring-stage PA^CSA IE 8 hours post-invasion, glycosaminoglycan present or target cells enzyme-treated (FIG. 2B), thrombospondin data not shown; for sensitivity of ring-stage IE^CSA cytoadhesion to inhibitor: 0.1 mg.ml of CSA, or prior treating of target cells with 1 U/ml Case ABC, until the 16th hour after invasion (FIG. 2A); for time after invasion at which inhibition was maximal: CSA and Case ABC tested every 4 hours throughout the cycle (FIG. 2A)
Protocol: Gelatin-enriched preparations of mature-stage IE were resuspended at a concentration of 5×10^6 IE/ml in cytoadhesion medium at pH 6.8. Cytoadhesion microassays were then performed on 12-well IFA slides (Institut Pasteur, Paris) as previously desribed^15.
Ring-stage cytoadhesion assays were performed with endothelial cells as described above and with placental cryosections as previously described^11, with 1 to 10% parasitaemia (a 1×10^7 IE/ml suspension).
For cytoadhesion inhibition assays, the IE were incubated with SBEC in the presence of 2.5 μg/ml thrombospondin, 0.1 mg/ml soluble CSA, dermatan sulphate (CSB), chondroitin-6-sulphate (CSC), keratin sulphate (Ker), byaluronic acid (HA), heparin (Hep) (Fluka, France), or with SBEC previously incubated for 1 hour at 37° C. with 1 U/ml Case (Fluka, France), 1 to 10 U/ml heparinase III (Hepase III (Sigma, France) or 5 μg/ml anti-CD36 FA6-152 Mab (gift from Dr. Edelman). Inhibition assays were also carried out in the presence of sera obtained from Senegalese and Cameroonian patients living in areas of endemic malaria. The sera were obtained from primigravida and multigravida women, an adult and a child, absorbed onto O^+ human blood and SBEC ID, and tested at a dilution of 1/20. The results were compared to those for cytoadhesion in the presence of a 1/20 dilution of a pool of control sera from volunteers who had never contacted malaria.

[2] = test system: ring-stage PA^CSA IE cytoadhesion to SBEC ID; experiment: Protease sensitivity of ring-stage IE cytoadhesion; format: cell-based, P. falciparum; conditions: protease concentration of 100 μg/ml (FIG. 3C)
Protocol: The protease sensitivity of ring-stage IE cytoadhesion was analyzed using 5 μl of packed PA^CSA IE (8 hours post-invasion). IE were incubated with 10 or 100 μg/ml of trypsin TPCK (Signa) or 100 µg/ml of -chymotrypsin TLCK (Sigma) for 30 minutes at 37° C. The digestion was topped by adding culture medium containing 10% human plasma. The cells were then washed in cytoadhesion medium and allowed to cytoadhere to SBEC ID, as previously described, using untreated PA^CSA as a control.

Molecule: hyaluronate lyase
- inhibitory effect on ring-stage IE binding to SBEC 1D [1]: low level of inhibitory activity

Molecule: -chymotrypsin
- inhibition of ring-stage IE adhesion after protease treatment of IE [2]: substantially inhibited

Molecule: chondroitin-sulphate A [CSA]
- sensitivity of ring-stage IE^CSA cytoadhesion to inhibitor [1]: insensitive
- time after invasion at which inhibition was maximal [1]: 24 h

Molecule: Hyaluronic acid
- inhibitory effect on ring-stage IE binding to SBEC 1D [1]: no activity

Molecule: chondroitinase ABC [Case]
- sensitivity of ring-stage IE^CSA cytoadhesion to inhibitor [1]: insensitive
- time after invasion at which inhibition was maximal [1]: 24 h
- inhibitory effect on ring-stage IE binding to SBEC 1D [1]: no significant inhibitory activity

Molecule: dermatan-sulphate [CSB]
- inhibitory effect on ring-stage IE binding to SBEC 1D [1]: not specific

Molecule: Thrombospondin: mature-stage IE adhesion receptor protein tested at 2.5 μg/ml
- inhibitory effect on ring-stage IE binding to SBEC 1D [1]: no effect

Molecule: heparin
- inhibition of ring-stage cytoadhesion ([1]; Heparin (100 m/ml) and heparinase, SBEC 1D (FIG. 2B)): about 50%

B1: trypsin: protease used to treat ring-stage IE (protein, UniProt P00760 24-246, looked up)
Serine protease 1: IVGGYTCGANTVPYQVSLNSGYHFCGGSLINSQWVVSAAHCYKSGIQVRLGEDNINVVEGNEQFISASKSIVHPSYNSNTLNNDIMLIKLKSAASLNSRVASISLPTSCASAGTQCLISGWGNTKSSGTSYPDVLKCLKAPILSDSSCKSAYPGQITSNMFCAGYLEGGKDSCQGDSGGPVVCSGKLQGIVSWGSGCAQKNKPGVYTKVCNYVSWIKQTIASN
modifications: TPCK-treated
notes: protease used to treat ring-stage IE
- inhibition of ring-stage IE adhesion after protease treatment of IE [2]: substantially inhibited
